Source: ChEMBL document CHEMBL5724709, “EUbOPEN Chemogenomics Library - IncuCyte” (2024)
Peptide text beside a SMILES is read from it. * marks the point of attachment. Boc = CC(C)(C)OC(=O)*

Tests used:
Type in all cases: toxicity, cell-based
Fibroblast = experiment: Incucyte cell viability with human fibroblast; conditions: 24 h, 10 µM, compound concentration 10 uM
U2OS = experiment: Incucyte cell viability with U2OS; conditions: human, 24 h, 10 µM, compound concentration 10 uM
HEK-293T = experiment: Incucyte cell viability with HEK293T; conditions: human, 24 h, 10 µM, compound concentration 10 uM
Note: unitless GR value; below 1 slowed growth and below 0 cell loss.

Row | Compound | Growth Rate (Fibroblast; replicate number 1) | Growth Rate (Fibroblast; replicate number 2) | Growth Rate (U2OS; replicate number 1) | Growth Rate (U2OS; replicate number 2) | Growth Rate (HEK-293T; replicate number 1) | Growth Rate (HEK-293T; replicate number 2)
1 | CC(=O)N[C@@H](CC(C)C)C(=O)N[C@@H](CCC(=O)O)C(=O)N[C@H](C(=O)N[C@H](C=O)CC(=O)O)C(C)C (Ac-LEVD-aldehyde) | 0.82 | 0.19 | 0.75 | 1 | 0.89 | 0.82
2 | CS(=O)(=O)c1ccc(-c2cnc(NCc3ccco3)n3cnnc23)cc1 | 1 | 0.87 | 1 | 0.66 | 0.63 | 0.95
3 | CC(C)[C@@H]1C(=O)N(S(C)(=O)=O)[C@@H]2CCN(C(=O)/C=C/CN3CCCCC3)[C@H]21.Cl | 0.66 | 1 | 1 | 0.76 | 0.79 | 0.98
4 | CC(C)(C)c1ccc(CN(C(=O)CN(Cc2c(F)c(F)c(F)c(F)c2F)S(=O)(=O)c2ccc(F)cc2)c2ccc(C(=O)NO)cc2)cc1 | 0.66 | -0.2 | 0.17 | 1 | 0.62 | 0.53
5 | COC[C@H](NC(=O)c1ccn(S(C)(=O)=O)c1)C(=O)Nc1nc(-c2cccc(-c3ccn(C)n3)c2)cs1 | 0.89 | 1 | 0.77 |  | 1 | 
6 | CCCCN(Cc1ccc(C(=O)NO)cc1)C(=O)Nc1ccccc1 [NEXTURASTAT A] | 1 | -0.22 | -0.18 | 0.6 | 1 | 
7 | Cc1cc2cc(NS(=O)(=O)c3ccc(C#N)cc3)ccc2n(C)c1=O | 0.71 | 0.65 | 1 |  | 0.88 | 
8 | COC(=O)[C@@H]1CC2=CC(=O)CC[C@]2(C)[C@@]23O[C@@H]2C[C@@]2(C)[C@@H](CC[C@@]24CCC(=O)O4)[C@H]13 [EPLERENONE] | 0.25 | 1 | 1 |  | 0.61 | 0.95
9 | CC(=O)N[C@@H](CC(=O)O)C(=O)N[C@@H](CCC(=O)O)C(=O)N[C@H](C(=O)N[C@H](C=O)CC(=O)O)C(C)C.O=C(O)C(F)(F)F | 0.55 | 0.22 | 1 |  | 0.74 | 1
10 | COc1cc(C)[nH]c(=O)c1CNC(=O)c1c(C)n([C@H](C)C2CCN(CC(F)(F)F)CC2)c2ccccc12 [CPI-1205] | 0.99 | 0.13 | 0.59 | 0.83 | 0.61 | 0.95
11 | CC(=O)O[C@]1(C(C)=O)CC[C@H]2[C@@H]3CCC4=CC(=O)CCC4=C3[C@@H](c3ccc(N(C)C)cc3)C[C@@]21C [ULIPRISTAL ACETATE] | 0.18 | 0.99 | 0.94 | 0.78 | 0.78 | 0.96
12 | C[C@H](CN[C@@H](C(=O)Nc1ccc(-c2cnn(C)c2)cn1)c1ccccc1)c1ccc(C#N)cc1 | 0.34 | -0.53 | 0.58 | 0.39 | 0.04 | 0.3
13 | CC(C)[C@H](NC(=O)OCc1ccccc1)C(=O)NC(CC(=O)O)C(=O)CF (some centres undefined) | 0.54 | 1 | 1 | 0.69 | 1 | 0.94
14 | COCCOCCn1nc2c(c1C)-c1c(Cl)ccc3c1c(C)c(C(=O)O)n3CCCOc1cc(cc3c(F)c(Cl)ccc13)CCc1cc(nn1C)CSC2 | -0.35 | -0.82 | 0.15 | 0.75 | 0.27 | 0.51
15 | CC(=O)Nc1ccc(C(=O)Nc2ccc(F)cc2N)cc1 | 1 |  | 1 |  | 0.67 | 1
16 | CNCCN(C)Cc1cn[nH]c1-c1ccc(OC2CC(OCCC3CCOCC3)C2)cc1 (centres undefined) | 0.77 | 0.95 | 0.23 | 1 | 0.64 | 0.82
17 | CCCN1CCN(c2ccc(C(=O)NC3(C(=O)NCC#N)CCCCC3)cc2)CC1 [BALICATIB] | 1 |  | 1 | 0.86 | 0.79 | 0.95
18 | CC(C)(CNC(=O)c1cccc(-c2noc(C(F)(F)F)n2)c1)c1coc(-c2ccccc2)n1 | 0.48 | 0.8 | 1 |  | 0.69 | 0.79

Row | Compound | Growth Rate (Fibroblast; replicate number 1) | Growth Rate (Fibroblast; replicate number 2) | Growth Rate (U2OS; replicate number 1) | Growth Rate (U2OS; replicate number 2) | Growth Rate (HEK-293T; replicate number 1) | Growth Rate (HEK-293T; replicate number 2)
19 | CC(C)[C@H](NC(=O)[C@H](CCC(=O)O)NC(=O)[C@H](C)NC(=O)OC(C)(C)C)C(=O)N[C@H](C=O)CC(=O)O.O=C(O)C(F)(F)F (Boc-AEVD-aldehyde) | 0.24 | 1 | 1 |  | 0.66 | 0.93
20 | COc1ccc2c(c1)OC(C)(C)C(c1ccccc1)C2c1ccc(OCCN2CCCC2)cc1 (centres undefined) [ORMELOXIFENE] | 1 | 0.9 | 1 | 0.75 | 0.93 | 0.92
21 | CCN(CCN(C)C)C(=O)CNCc1cc(C(N)=O)ccn1.Cl.O | 0.65 | 0.4 | 0.89 | 0.8 | 0.74 | 0.94
22 | O=C(NCCc1cc(C(=O)NO)no1)c1ccc(Cl)c(Cl)c1 | 1 | 0.22 | 0.33 | 1 | 0.99 | 1
23 | Cc1cc(C(=O)N2CCN(C3CN(C(=O)c4ccc(-c5ccccc5)cc4)C3)CC2)no1 | 0.37 | 0.27 | 0.79 | 1 | 0.61 | 0.63
24 | O=C(CCl)Nc1ccc(S(=O)(=O)c2ccc(NC(=O)CCl)cc2)cc1 | -0.61 | -0.63 | -0.42 | 0.05 | -0.4 | -0.18
25 | O=C(c1ccc2[nH]ccc2c1)N1CCN(S(=O)(=O)c2ccc3[nH]c(=O)oc3c2)CC1 | 0.24 | 1 | 0.5 | 0.82 | 0.91 | 1
26 | CC(C)N(C[C@H]1O[C@@H](n2cnc3c(N)ncnc32)[C@H](O)[C@@H]1O)[C@H]1C[C@@H](CCc2nc3cc(C(C)(C)C)ccc3[nH]2)C1 [PINOMETOSTAT] | 1 |  | 1 | 0.85 | 0.61 | 0.77
27 | Cc1ccc(NC2=CC(=O)c3sc(C)nc3C2=O)cc1 | -0.84 | -0.96 | -0.86 | -0.45 | -0.37 | -0.23
28 | COc1cc2c(NC3CCN(CC4CCCCC4)CC3)nc(N3CCCN(C(C)C)CC3)nc2cc1OCCCN1CCCCC1 | -0.44 | -0.13 | -0.52 | -0.15 | -0.58 | -0.42
29 | C=CC(=O)Nc1cccc(-c2c[nH]cc2CN(C)CCN)c1 | 0.37 | 1 | 0.21 | 1 | 0.75 | 0.9
30 | CSCC[C@H](NC(=O)[C@H](CC(=O)O)NC(C)=O)C(=O)N[C@@H](CCC(N)=O)C(=O)N[C@H](C=O)CC(=O)O.O=C(O)C(F)(F)F (Ac-DMQD-aldehyde) | 0.25 | 1 | 1 |  | 1 | 0.97
31 | CCn1c(=O)c(C)cn(Cc2nnc(-c3ccc(F)c(OC)c3F)s2)c1=O | 0.35 | 1 | 0.26 | 1 | 0.83 | 0.9
32 | Cc1cc(C)c(CNC(=O)c2cc(-c3ccc(N4CCN(C)CC4)nc3)cc3c2c(C)cn3C(C)C)c(=O)[nH]1 | 1 |  | 0.61 | 0.86 | 0.42 | 0.79
33 | Cc1ccc(C(=O)Nc2ccc(S(=O)(=O)[O-])c3cc(S(=O)(=O)[O-])cc(S(=O)(=O)[O-])c23)cc1NC(=O)c1cccc(NC(=O)Nc2cccc(C(=O)Nc3cc(C(=O)Nc4ccc(S(=O)(=O)[O-])c5cc(S(=O)(=O)[O-])cc(S(=O)(=O)[O-])c45)ccc3C)c2)c1.[Na+].[Na+].[Na+].[Na+].[Na+].[Na+] [SURAMIN HEXASODIUM] | 0.42 | 0.59 | 1 |  | 0.7 | 0.83
34 | Cc1cc(C)cc(Oc2ccc(CNC(=O)[C@H](C)N)cc2C)c1.Cl | 1 |  | 0.69 | 1 | 0.84 | 0.89
35 | CC(C)n1nc(-c2cc3cc(O)ccc3[nH]2)c2c(N)ncnc21 | 0.59 | 0.98 | -0.49 | -0.01 | -0.17 | -0.09
36 | CCNC(=O)NCCSC[C@H]1O[C@@H](n2cnc3c(N)ncnc32)[C@H](O)[C@@H]1O | 0.65 | 0 | 1 | 0.72 | 0.71 | 0.87
